Source: ChEMBL document CHEMBL1130917, “The design, synthesis, and structure-activity relationships of a series of macrocyclic MMP inhibitors” (Bioorg Med Chem Lett, 1998)
pIC50: −log10 of the molar value.

Legend:
Matrilysin = biological target: T1, Matrilysin (Homo sapiens, UniProt P09237); experiment: Inhibition of fibroblast matrilysin (MMP-7)
T1 sequence (P09237 whole entry): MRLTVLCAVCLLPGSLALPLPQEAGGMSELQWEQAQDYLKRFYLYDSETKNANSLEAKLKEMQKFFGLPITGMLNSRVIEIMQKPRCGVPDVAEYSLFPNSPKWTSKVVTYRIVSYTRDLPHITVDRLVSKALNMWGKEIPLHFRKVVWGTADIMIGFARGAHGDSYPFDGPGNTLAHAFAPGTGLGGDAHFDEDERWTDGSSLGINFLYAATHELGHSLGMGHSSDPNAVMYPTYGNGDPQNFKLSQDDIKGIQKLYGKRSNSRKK

Interstitial collagenase = biological target: T2, Interstitial collagenase (Homo sapiens, UniProt P03956); experiment: Inhibition of fibroblast collagenase (MMP-1)
T2 sequence (P03956 whole entry): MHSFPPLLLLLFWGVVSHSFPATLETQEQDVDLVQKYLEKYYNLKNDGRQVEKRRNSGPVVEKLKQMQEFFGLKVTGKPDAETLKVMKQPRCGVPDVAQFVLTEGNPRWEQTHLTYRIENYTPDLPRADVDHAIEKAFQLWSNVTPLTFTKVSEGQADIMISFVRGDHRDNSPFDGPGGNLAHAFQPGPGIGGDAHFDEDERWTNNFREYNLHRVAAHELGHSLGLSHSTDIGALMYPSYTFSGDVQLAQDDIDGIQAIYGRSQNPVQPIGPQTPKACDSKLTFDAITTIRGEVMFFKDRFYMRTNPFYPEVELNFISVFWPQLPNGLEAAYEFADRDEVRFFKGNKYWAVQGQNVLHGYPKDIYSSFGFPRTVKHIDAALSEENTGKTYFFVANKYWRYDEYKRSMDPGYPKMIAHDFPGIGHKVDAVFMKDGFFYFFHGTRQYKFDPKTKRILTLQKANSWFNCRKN

[1] = biological target: 72 kDa type IV collagenase (Homo sapiens, UniProt P08253); experiment: Inhibition of fibroblast gelatinase A (MMP-2)
Stromelysin-1 = Stromelysin-1 (Homo sapiens, UniProt P08254); experiment: Inhibition of fibroblast stromelysin (MMP-3)
Chain of Stromelysin-1 (P08254 whole entry): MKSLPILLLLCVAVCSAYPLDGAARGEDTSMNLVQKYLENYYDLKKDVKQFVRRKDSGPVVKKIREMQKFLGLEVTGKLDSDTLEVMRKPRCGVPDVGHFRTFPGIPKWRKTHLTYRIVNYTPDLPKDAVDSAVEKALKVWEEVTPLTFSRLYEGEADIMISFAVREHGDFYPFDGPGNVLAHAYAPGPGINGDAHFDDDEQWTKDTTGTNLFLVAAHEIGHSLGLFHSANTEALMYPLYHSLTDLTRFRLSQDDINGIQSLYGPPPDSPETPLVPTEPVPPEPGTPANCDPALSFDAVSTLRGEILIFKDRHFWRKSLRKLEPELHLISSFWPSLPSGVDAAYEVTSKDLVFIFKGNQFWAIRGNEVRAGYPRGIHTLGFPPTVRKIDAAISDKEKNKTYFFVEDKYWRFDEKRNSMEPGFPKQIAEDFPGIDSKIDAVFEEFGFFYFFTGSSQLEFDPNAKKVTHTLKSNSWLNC

Chain of 72 kDa type IV collagenase (P08253 whole entry): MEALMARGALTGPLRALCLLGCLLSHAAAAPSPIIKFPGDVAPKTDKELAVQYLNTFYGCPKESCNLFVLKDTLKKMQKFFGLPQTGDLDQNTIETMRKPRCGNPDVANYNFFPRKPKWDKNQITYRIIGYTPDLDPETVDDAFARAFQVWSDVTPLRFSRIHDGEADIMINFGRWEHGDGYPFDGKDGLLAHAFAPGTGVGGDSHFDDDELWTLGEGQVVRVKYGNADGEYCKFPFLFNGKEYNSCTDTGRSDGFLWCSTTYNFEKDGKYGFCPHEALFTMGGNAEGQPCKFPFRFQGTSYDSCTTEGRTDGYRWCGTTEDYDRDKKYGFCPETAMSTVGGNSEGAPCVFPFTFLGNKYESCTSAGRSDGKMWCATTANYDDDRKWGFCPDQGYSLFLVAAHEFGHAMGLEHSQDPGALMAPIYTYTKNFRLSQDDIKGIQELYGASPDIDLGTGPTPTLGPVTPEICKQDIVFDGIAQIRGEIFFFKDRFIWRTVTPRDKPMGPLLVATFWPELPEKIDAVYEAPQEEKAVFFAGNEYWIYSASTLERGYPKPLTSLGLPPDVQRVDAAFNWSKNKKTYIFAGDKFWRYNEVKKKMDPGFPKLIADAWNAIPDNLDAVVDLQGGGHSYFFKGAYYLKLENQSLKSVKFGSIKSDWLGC

Row | Structure (SMILES) | pIC50 (Matrilysin) | pIC50 (Interstitial collagenase) | pIC50 [1] | pIC50 (Stromelysin-1)
1 | CNC(=O)[C@@H]1Cc2ccc(cc2)OCCCCCC[C@H](C(=O)NO)[C@@H](CC(C)C)C(=O)N1 | 8.24 | 8.66 | 8.23 | –
2 | CC(C)C[C@H]1C(=O)N[C@H](C(=O)NCCN(C)C)Cc2ccc(cc2)OCCCC[C@@H]1C(=O)NO | 8.38 | 8.18 | 8.19 | 7.92
3 | CNC(=O)[C@@H]1Cc2ccc(cc2)OCCCCC[C@H](C(=O)O)[C@@H](CC(C)C)C(=O)N1 | 6.96 | 5.85 | 5.85 | 7.12
4 | CNC(=O)[C@@H]1Cc2ccc(cc2)OCCC[C@H](C(=O)O)[C@@H](CC(C)C)C(=O)N1 | 6.05 | < 5.00 | 4.85 | –
5 | CNC(=O)[C@@H]1Cc2ccc(cc2)OCCC[C@H](C(=O)NO)[C@@H](CC(C)C)C(=O)N1 | 8.52 | 8.52 | 8.59 | –
6 | CNC(=O)[C@@H]1Cc2ccc(cc2)OCCCCC[C@H](C(=O)NO)[C@@H](CC(C)C)C(=O)N1 | 8.59 | 8.68 | 8.64 | –
7 | CC(C)C[C@H]1C(=O)N[C@H](C(=O)Nc2ccccn2)Cc2ccc(cc2)OCCCC[C@@H]1C(=O)NO | 8.80 | 8.34 | 8.68 | –
8 | CSCCNC(=O)[C@@H]1Cc2ccc(cc2)OCCCC[C@H](C(=O)NO)[C@@H](CC(C)C)C(=O)N1 | 8.60 | 8.57 | 8.42 | 8.38

Further lines, results first:

Row | pIC50 (Matrilysin) | pIC50 (Interstitial collagenase) | pIC50 [1] | pIC50 (Stromelysin-1) | Structure (SMILES)
9 | 6.36 | 6.96 | 6.64 | – | CNC(=O)[C@@H]1Cc2ccc(cc2)OCCCC[C@@H](C(=O)NO)[C@@H](CC(C)C)C(=O)N1
10 | 6.74 | 6.68 | 9.52 | 8.74 | CNC(=O)[C@@H]1Cc2ccc(cc2)OCCCC[C@H](C(=O)NO)[C@@H](CCCCOCc2ccccc2)C(=O)N1
11 | 8.23 | 7.27 | 10.00 | – | CCCc1ccc(CC[C@H]2C(=O)N[C@H](C(=O)NC)Cc3ccc(cc3)OCCCC[C@@H]2C(=O)NO)cc1
12 | 8.80 | 8.74 | 8.66 | – | CNC(=O)[C@@H]1Cc2ccc(cc2)OCCCC[C@H](C(=O)NO)[C@@H](CC(C)C)C(=O)N1
13 | 8.55 | 8.21 | 9.10 | 8.04 | CNC(=O)[C@@H]1Cc2ccc(cc2)OCCCC[C@H](C(=O)NO)[C@@H](CCCc2ccc(C)cc2)C(=O)N1
14 | 7.60 | 8.52 | 8.72 | – | CC(C)C[C@H]1C(=O)N[C@H](C(=O)NCCc2ccc(S(N)(=O)=O)cc2)Cc2ccc(cc2)OCCCC[C@@H]1C(=O)NO
